According to patent US20250195521A1 (Revolution Medicines, Inc., priority 2020, published 2025):
Several values for one entry are separate records, joined by “and”; a condition that tells them apart may be missing. Equal values may be shown once. Read-outs that look alike come from different tables or passages of the source.

How the values were obtained:
[1] = tested on: K-Ras G12C (NCI-H358 cells); experiment: Potency assay: pERK in NCI-H358 cells; format: cell-based, human; details: read-out: pERK EC50 (H358 KRAS G12C)
Method in brief: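 Cells plated the day before were exposed for 4 h at 37° C, 5% CO2 to a 10-point, 3-fold DMSO dilution series (10 mM top stock), in duplicate. Phospho-ERK was read by AlphaLISA SureFire Ultra or by In-Cell Western with DRAQ5 DNA stain, and IC50 came from a 4-parameter sigmoidal fit.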

[2] = tested on: Capan-1 cells (K-Ras G12V); experiment: CellTiter-Glo cell viability, Capan-1; format: cell-based, human; details: read-out: Capan-1 Cell Viability IC50
Method in brief: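 Viability read by luminescence on day 5 after direct compound addition to cells, following ~30 min room-temperature equilibration. Values expressed as percent of mean DMSO signal, curves fitted with a four-parameter logistic model.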

[3] = target: K-Ras G12C(GMP-PNP) binding to BRAF RBD (Homo sapiens (Human), UniProt P01116+P62937, G12C); experiment: Disruption of BRAF RBD interaction with K-Ras (FRET / MOA assay), K-Ras G12C; format: biochemical; details: read-out: KRAS G12C FRET IC50
Method in brief: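 TR-FRET readout: after 3 h compound incubation at 25 °C, anti-His Eu and anti-GST allophycocyanin (10 and 50 nM final) added for a further 1.5 h. Dilution series was 10-point, 3-fold, top 30 μM final. Ras–cyclophilin A ternary complex formation blocks the BRAF RBD interaction; IC50 derived from reduced FRET ratio relative to DMSO.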

[4] = Homo sapiens, NCI-H358 cells, 4 hours
[5] = Homo sapiens, CAPAN-1, 120 h, K-Ras G12V, 5-day treatment

K-Ras G12C(GMP-PNP) binding to BRAF RBD, sequence (P01116 other isoform, or with tags, fused parts or gaps G12C): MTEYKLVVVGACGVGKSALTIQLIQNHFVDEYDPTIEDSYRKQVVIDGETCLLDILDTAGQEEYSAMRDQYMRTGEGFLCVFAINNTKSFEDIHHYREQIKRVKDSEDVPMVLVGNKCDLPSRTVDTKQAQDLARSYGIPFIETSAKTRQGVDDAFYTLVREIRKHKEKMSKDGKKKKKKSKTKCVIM
K-Ras G12C(GMP-PNP) binding to BRAF RBD, sequence (P62937 whole entry): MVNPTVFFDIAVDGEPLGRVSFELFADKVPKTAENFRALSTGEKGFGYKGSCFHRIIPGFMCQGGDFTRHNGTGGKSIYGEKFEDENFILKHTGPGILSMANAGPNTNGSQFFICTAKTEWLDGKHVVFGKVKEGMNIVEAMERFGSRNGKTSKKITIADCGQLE

| Structure (SMILES) | EC50 [1, 4] | IC50 [2, 5] | IC50 [3] | EC50 ([1]; NCI-H358 cells, 4 hours) | IC50 ([2]; K-Ras G12V, 5-day treatment) | EC50 ([1]; Homo sapiens, NCI-H358, 4 h) | IC50 ([2]; Homo sapiens, CAPAN-1, 120 h) |
| --- | --- | --- | --- | --- | --- | --- | --- |
| CCn1c(-c2cccnc2[C@H](C)OC)c2c3cc(ccc31)-c1csc(n1)C[C@H](NC(=O)[C@H](C(C)C)N(C)C(=O)N1CC3(CCN(C)C3)C1)C(=O)N1CCC[C@H](N1)C(=O)OCC(C)(C)C2 [Compound A602] | < 5000 nM | 100 to 1000 nM | 10 to 100 nM |  |  |  |  |
| CCn1c(-c2cccnc2[C@H](C)OC)c2c3cc(ccc31)-c1csc(n1)C[C@H](NC(=O)C1CC1)C(=O)N1CCC[C@H](N1)C(=O)OCC(C)(C)C2 [Compound A367] | < 5000 nM | 100 to 1000 nM | 10 to 100 nM |  |  |  |  |
| CCn1c(-c2cccnc2[C@H](C)OC)c2c3cc(ccc31)-c1cc(O)cc(c1)C[C@H](NC(=O)[C@H](C(C)C)N(C)C(=O)C1CN3CCCN1CC3)C(=O)N1CCC[C@H](N1)C(=O)OCC(C)(C)C2 (stereo partly drawn) [Compound A404] | < 5000 nM | > 10000 nM | 100 to 1000 nM |  |  |  |  |
| CCn1c(-c2cccnc2[C@H](C)OC)c2c3cc(ccc31)-c1cc(O)cc(c1)C[C@H](NC(=O)C(=C(C)C)N(C)C(C)=O)C(=O)N1CCC[C@H](N1)C(=O)OCC(C)(C)C2 [Compound A142] | < 5000 nM | > 10000 nM | 10 to 100 nM |  |  |  |  |
| CCn1c(-c2cccnc2[C@H](C)OC)c2c3cc(ccc31)-c1csc(n1)C[C@H](NC(=O)[C@H](C(C)C)N(C)C(=O)N1CCOC[C@@H]1C)C(=O)N1CCC[C@H](N1)C(=O)OCC(C)(C)C2 [Compound A403] | < 5000 nM | 10 to 100 nM | < 10 nM |  |  |  |  |
| CCn1c(-c2cccnc2[C@H](C)OC)c2c3cc(ccc31)-c1cc(O)cc(c1)C[C@H](NC(=O)[C@H](C(C)C)N(C)C(=O)C13CC(CO1)C3)C(=O)N1CCC[C@H](N1)C(=O)OCC(C)(C)C2 [Compound A406] | < 5000 nM | 100 to 1000 nM | 100 to 1000 nM |  |  |  |  |
| CCn1c(-c2cccnc2[C@H](C)OC)c2c3cc(ccc31)-c1csc(n1)C[C@H](NC(=O)[C@H](C(C)C)N(C)C(=O)N1CCN(C(=O)[C@@H]3CCCN3C)CC1)C(=O)N1CCC[C@H](N1)C(=O)OCC(C)(C)C2 [Compound A596] | < 5000 nM | 100 to 1000 nM | 10 to 100 nM |  |  |  |  |
| CCn1c(-c2cccnc2[C@H](C)OC)c2c3cc(ccc31)-c1csc(n1)C[C@H](NC(=O)[C@H](C(C)C)N(C)C(=O)N1CC([C@H](C)COC)C1)C(=O)N1CCC[C@H](N1)C(=O)OCC(C)(C)C2 [Compound A533] | < 5000 nM | 10 to 100 nM | 10 to 100 nM |  |  |  |  |
| CCn1c(-c2cccnc2[C@H](C)OC)c2c3cc(ccc31)-c1cccc(c1)C[C@H](NC(=O)[C@H](C(C)C)N(C)C(=O)C1COC1)C(=O)N1CCC[C@H](N1)C(=O)OCC(C)(C)C2 [Compound A246] | < 5000 nM | 1000 to 10000 nM | < 10 nM |  |  |  |  |
| CCn1c(-c2cccnc2[C@H](C)OC)c2c3cc(ccc31)-c1cc(O)cc(c1)C[C@H](NC(=O)[C@H](C(C)C)N(C)C(=O)[C@@H]1CCCC[C@@H]1N)C(=O)N1CCC[C@H](N1)C(=O)OCC(C)(C)C2 [Compound A395] | < 5000 nM | 100 to 1000 nM | 100 to 1000 nM |  |  |  |  |
| CCn1c(-c2cccnc2[C@H](C)OC)c2c3cc(ccc31)-c1csc(n1)C[C@H](NC(=O)[C@H](C(C)C)N(C)C(=O)N1CC[C@H]1CN)C(=O)N1CCC[C@H](N1)C(=O)OCC(C)(C)C2 [Compound A463] | < 5000 nM | 1000 to 10000 nM | 10 to 100 nM |  |  |  |  |
| CCn1c(-c2cccnc2[C@H](C)OC)c2c3cc(ccc31)-c1csc(n1)C[C@H](NC(=O)[C@H](C(C)C)N(C)C(=O)N1CCN3C(=O)CN(C)C[C@H]3C1)C(=O)N1CCC[C@H](N1)C(=O)OCC(C)(C)C2 [Compound A537] | < 5000 nM | 10 to 100 nM | 10 to 100 nM |  |  |  |  |
| CCn1c(-c2cc(N3CCN(C)CC3)cnc2[C@H](C)OC)c2c3cc(ccc31)-c1csc(n1)C[C@H](NC(=O)[C@H](C(C)C)N(C)C(=O)[C@@H]1CCCS1(=O)=O)C(=O)N1CCC[C@H](N1)C(=O)OCC(C)(C)C2 [Compound A440] | < 5000 nM | 10 to 100 nM | 10 to 100 nM |  |  |  |  |
| CCn1c(-c2cccnc2[C@H](C)OC)c2c3cc(ccc31)-c1csc(n1)C[C@H](NC(=O)[C@H](C(C)C)N(C)C(=O)N1CCC13CCS(=O)(=O)CC3)C(=O)N1CCC[C@H](N1)C(=O)OCC(C)(C)C2 [Compound A530] | < 5000 nM | 100 to 1000 nM | 100 to 1000 nM |  |  |  |  |
| CCn1c(-c2cccnc2[C@H](C)OC)c2c3cc(ccc31)-c1cc(O)cc(c1)C[C@H](NC(=O)C1CCC3C1C3(F)F)C(=O)N1CCC[C@H](N1)C(=O)OCC(C)(C)C2 (stereo partly drawn) [Compound A181] | < 5000 nM | > 10000 nM | 10 to 100 nM and 100 to 1000 nM |  |  |  |  |
| CCn1c(-c2cccnc2[C@H](C)OC)c2c3cc(ccc31)-c1csc(n1)C[C@H](NC(=O)[C@H](C(C)C)N(C)C(=O)N1CC(O)(CN(C)C)C1)C(=O)N1CCC[C@H](N1)C(=O)OCC(C)(C)C2 [Compound A597] | < 5000 nM | 100 to 1000 nM | 10 to 100 nM |  |  |  |  |
| CCn1c(-c2cccnc2[C@H](C)OC)c2c3cc(ccc31)-c1cc(O)cc(c1)C[C@H](NC(=O)[C@H](C(C)C)N(C)C(=O)[C@@H]1[C@H]3CC[C@H](C3)[C@@H]1N)C(=O)N1CCC[C@H](N1)C(=O)OCC(C)(C)C2 [Compound A417] | < 5000 nM | 1000 to 10000 nM | 10 to 100 nM |  |  |  |  |
| CCn1c(-c2cccnc2[C@H](C)OC)c2c3cc(ccc31)-c1csc(n1)C[C@H](NC(=O)[C@H](C(C)C)N(C)C(=O)N1CC[C@]3(CCNC3=O)C1)C(=O)N1CCC[C@H](N1)C(=O)OCC(C)(C)C2 [Compound A479] | < 5000 nM | 1000 to 10000 nM | < 10 nM |  |  |  |  |
| CCn1c(-c2cccnc2[C@H](C)OC)c2c3cc(ccc31)-c1cc(O)cc(c1)C[C@H](NC(=O)[C@H](C(C)C)N(C)C(=O)[C@H]1CCN(C(=O)[C@@H](C)N(C)C)C1)C(=O)N1CCC[C@H](N1)C(=O)OCC(C)(C)C2 [Compound A386] | < 5000 nM | 100 to 1000 nM | 10 to 100 nM |  |  |  |  |
| CCOC1c2nc(cs2)-c2ccc3c(c2)c(c(-c2cc(C4CC5COCC(C4)N5C4CC4)cnc2C(C)OC)n3CC)CC(C)(C)COC(=O)C2CCCN(N2)C(=O)C1NC(=O)C1C(C)C1C [Compound A483, (1r,2R,3S)—N-((6^3S,3S,4S,Z)-12-(5-((1R,5S,7s)-9-cyclopropyl-3-oxa-9-azabicyclo[3.3.1]nonan-7-yl)-2-((S)-1-methoxyethyl)pyridin-3-yl)-3-ethoxy-1^1-ethyl-10,10-dimethyl-5,7-dioxo-6^1,6^2,6^3,6^4,6^5,6^6-hexahydro-1^1H-8-oxa-2 (4,2)-thiazola-1 (5,3)-indola-6 (1,3)-pyridazinacycloundecaphane-4-yl)-2,3-dimethylcyclopropane-1-carboxamide] |  |  | 100 to 1000 nM | < 5000 nM | 10 to 100 nM |  |  |
| CCn1c(-c2cccnc2[C@H](C)OC)c2c3cc(ccc31)-c1csc(n1)C[C@H](NC(=O)[C@H](C(C)C)N(C)C(=O)[C@H]1CCN(S(C)(=O)=O)C1)C(=O)N1CCC[C@H](N1)C(=O)OCC(C)(C)C2 [Compound A237] |  |  | 10 to 100 nM |  |  | < 5000 nM | 1000 to 10000 nM |
| CCn1c(-c2cccnc2[C@H](C)OC)c2c3cc(ccc31)-c1csc(n1)C[C@H](NC(=O)[C@H](C(C)C)N(C)C(=O)N1C[C@H]3CN(C)CC[C@H]31)C(=O)N1CCC[C@H](N1)C(=O)OCC(C)(C)C2 [Compound A462] | < 5000 nM | 100 to 1000 nM | 100 to 1000 nM |  |  |  |  |
| CCn1c(-c2cccnc2[C@H](C)OC)c2c3cc(ccc31)-c1cc(O)cc(c1)C[C@H](NC(=O)[C@H](C(C)C)N(C)C(=O)[C@H]1CCN(C3CC3)C1)C(=O)N1CCC[C@H](N1)C(=O)OCC(C)(C)C2 [Compound A175] | < 5000 nM | 1000 to 10000 nM | < 10 nM |  |  |  |  |
| CCn1c(-c2cccnc2[C@H](C)OC)c2c3cc(ccc31)-c1cc(cc3nc[nH]c13)C[C@H](NC(=O)[C@H](C(C)C)N(C)C(C)=O)C(=O)N1CCC[C@H](N1)C(=O)OCC(C)(C)C2 [Compound A153] | < 5000 nM | > 10000 nM | 10 to 100 nM |  |  |  |  |
